Measured values: article PMC5858560 (Toxicology and applied pharmacology, 2011)
pIC50: −log10 of the molar value.

Assays:
RAF = RAF (Homo sapiens, UniProt P04049); assay: KINOMEscan; format: binding; settings: read-out: % Inhibition AMBIT, RAF
RPS6KA2 (Kin. Dom.1) = RPS6KA2 (Kin. Dom.1) (Homo sapiens, UniProt Q15349); assay: KINOMEscan; format: binding; settings: read-out: % Inhibition AMBIT, RPS6KA2 (Kin. Dom.1)
GSK3A = GSK3A (Homo sapiens, UniProt P49840); assay: KINOMEscan; format: binding; settings: read-out: % Inhibition AMBIT, GSK3A
pACC-S79, pAMPK-T172 = assay: Western blot of AMPK/ACC signaling in iCell cardiomyocytes; format: cell-based, human; settings: iPSC-CMs; for phosphorylation status of AMPKα-Thr172 and ACC-Ser79: 1 or 2 mM for 3 h
RPS6KA1 (Kin. Dom.1) = RPS6KA1 (Kin. Dom.1) (Homo sapiens, UniProt Q15418); assay: KINOMEscan; format: binding; settings: read-out: % Inhibition AMBIT, RPS6KA1 (Kin. Dom.1)
317 kinases = settings: at 0.1 µM; ref Karaman et al., 2008; cited from earlier work
CDK7 = CDK7 (Homo sapiens, UniProt P50613); assay: KINOMEscan; format: binding; settings: read-out: % Inhibition AMBIT, CDK7
PIM1 = PIM1 (Homo sapiens, UniProt P11309); assay: KINOMEscan; format: binding; settings: read-out: % Inhibition AMBIT, PIM1
GSK3B = GSK3B (Homo sapiens, UniProt P49841); assay: KINOMEscan; format: binding; settings: read-out: % Inhibition AMBIT, GSK3B
GSK3B, sequence (P49841 whole entry): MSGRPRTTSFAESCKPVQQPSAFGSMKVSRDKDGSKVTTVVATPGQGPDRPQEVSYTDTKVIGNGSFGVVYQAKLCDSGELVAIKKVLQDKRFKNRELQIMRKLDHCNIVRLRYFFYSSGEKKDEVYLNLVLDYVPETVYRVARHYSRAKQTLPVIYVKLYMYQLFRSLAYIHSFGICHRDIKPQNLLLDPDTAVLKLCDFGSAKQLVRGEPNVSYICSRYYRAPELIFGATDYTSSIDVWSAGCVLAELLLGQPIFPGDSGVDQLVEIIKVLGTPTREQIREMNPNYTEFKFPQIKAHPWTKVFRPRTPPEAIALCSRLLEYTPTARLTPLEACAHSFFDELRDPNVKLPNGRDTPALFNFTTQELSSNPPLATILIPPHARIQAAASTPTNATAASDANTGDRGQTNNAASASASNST

ERBB4 = ERBB4 (Homo sapiens, UniProt Q15303); assay: KINOMEscan; format: binding; settings: read-out: % Inhibition AMBIT, ERBB4
ROCK2 = ROCK2 (Homo sapiens, UniProt O75116); assay: KINOMEscan; format: binding; settings: read-out: % Inhibition AMBIT, ROCK2
RPS6KA4 (Kin. Dom.1) = RPS6KA4 (Kin. Dom.1) (Homo sapiens, UniProt O75676); assay: KINOMEscan; format: binding; settings: read-out: % Inhibition AMBIT, RPS6KA4 (Kin. Dom.1)
human iPSC-CMs [1] = assay: Caspase 3/7 cleavage; format: cell-based; settings: for maximal attenuation of caspase 3/7 cleavage: 23 µM sunitinib 24 h
human iPSC-CMs [2] = assay: Microelectrode array; format: cell-based; settings: MEA; for change of beat rate from baseline: up to 2 mM
AMPK-alpha2 = AMPK-alpha2 (Homo sapiens, UniProt P54646); assay: KINOMEscan; format: binding; settings: read-out: % Inhibition AMBIT, AMPK-alpha2
AURORA C KINASE = AURORA C KINASE (Homo sapiens, UniProt Q9UQB9); assay: KINOMEscan; format: binding; settings: read-out: % Inhibition AMBIT, AURORA C KINASE
AURORA C KINASE, sequence (Q9UQB9 whole entry): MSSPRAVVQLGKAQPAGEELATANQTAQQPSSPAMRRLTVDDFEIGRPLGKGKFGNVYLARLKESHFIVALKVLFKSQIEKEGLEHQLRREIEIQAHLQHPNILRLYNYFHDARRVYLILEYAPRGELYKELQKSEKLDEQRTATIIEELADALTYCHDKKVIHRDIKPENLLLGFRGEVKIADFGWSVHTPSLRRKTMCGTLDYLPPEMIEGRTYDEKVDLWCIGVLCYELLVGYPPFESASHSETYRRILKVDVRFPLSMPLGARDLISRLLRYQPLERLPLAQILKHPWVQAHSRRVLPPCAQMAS

human iPSC-CMs [3] = assay: ATP depletion; format: cell-based; settings: for depletion of ATP: 31 µM sunitinib; for TC50 based on dose–response data for ATP depletion: human iPSC-CMs, 24 h treatment; for attenuation of sunitinib-mediated ATP depletion: 3 h pretreatment with 1 or 2 mM, then 8 to 31 µM sunitinib for 24 h
human iPSC-CMs [4] = assay: Cytotoxicity dose response; format: cell-based; settings: for concentration without cytotoxicity (no ATP depletion or LDH release): 4 to 250 µM tested, 24 h
STK11 = STK11 (Homo sapiens, UniProt Q15831); assay: KINOMEscan; format: binding; settings: read-out: % Inhibition AMBIT, STK11
PLK4 = PLK4 (Homo sapiens, UniProt O00444); assay: KINOMEscan; format: binding; settings: read-out: % Inhibition AMBIT, PLK4
PLK4, sequence (O00444 whole entry): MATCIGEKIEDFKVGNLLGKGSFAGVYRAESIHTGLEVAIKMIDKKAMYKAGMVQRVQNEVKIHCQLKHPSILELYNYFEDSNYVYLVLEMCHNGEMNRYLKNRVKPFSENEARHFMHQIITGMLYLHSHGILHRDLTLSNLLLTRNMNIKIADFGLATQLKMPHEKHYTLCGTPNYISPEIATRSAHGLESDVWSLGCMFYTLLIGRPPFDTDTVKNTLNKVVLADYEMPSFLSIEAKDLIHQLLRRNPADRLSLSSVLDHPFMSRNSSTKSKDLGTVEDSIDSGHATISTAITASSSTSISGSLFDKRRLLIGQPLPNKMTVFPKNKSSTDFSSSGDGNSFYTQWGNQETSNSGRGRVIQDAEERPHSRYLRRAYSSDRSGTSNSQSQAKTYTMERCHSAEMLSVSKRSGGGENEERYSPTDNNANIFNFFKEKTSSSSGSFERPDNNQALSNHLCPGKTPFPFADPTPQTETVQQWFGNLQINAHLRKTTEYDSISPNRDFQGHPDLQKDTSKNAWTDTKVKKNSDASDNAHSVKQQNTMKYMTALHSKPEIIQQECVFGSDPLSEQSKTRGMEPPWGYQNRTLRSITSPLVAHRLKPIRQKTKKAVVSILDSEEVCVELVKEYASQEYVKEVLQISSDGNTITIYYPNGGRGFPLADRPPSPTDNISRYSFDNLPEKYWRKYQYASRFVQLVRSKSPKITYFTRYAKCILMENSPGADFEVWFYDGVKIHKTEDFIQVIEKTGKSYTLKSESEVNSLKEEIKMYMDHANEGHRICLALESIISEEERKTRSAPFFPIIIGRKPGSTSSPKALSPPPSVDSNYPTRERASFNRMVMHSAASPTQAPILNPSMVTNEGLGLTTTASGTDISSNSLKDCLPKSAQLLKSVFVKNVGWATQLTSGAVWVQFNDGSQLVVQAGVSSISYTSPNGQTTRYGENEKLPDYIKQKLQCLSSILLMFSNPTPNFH

PDGFR-beta = PDGFR-beta (Homo sapiens, UniProt P09619); assay: KINOMEscan; format: binding; settings: read-out: % Inhibition AMBIT, PDGFR-beta
RPS6KA6 (Kin. Dom.2) = RPS6KA6 (Kin. Dom.2) (Homo sapiens, UniProt Q9UK32); assay: KINOMEscan; format: binding; settings: read-out: % Inhibition AMBIT, RPS6KA6 (Kin. Dom.2)
RPS6KA6 (Kin. Dom.2), sequence (Q9UK32 426-683 limits assumed): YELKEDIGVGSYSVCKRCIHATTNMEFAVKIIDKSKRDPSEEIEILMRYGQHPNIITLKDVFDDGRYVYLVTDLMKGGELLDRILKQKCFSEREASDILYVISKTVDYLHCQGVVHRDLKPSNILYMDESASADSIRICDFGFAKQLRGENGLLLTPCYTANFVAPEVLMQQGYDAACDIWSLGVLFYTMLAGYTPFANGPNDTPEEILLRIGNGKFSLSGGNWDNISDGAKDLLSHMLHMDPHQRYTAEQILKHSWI

AMPK-alpha1 = AMPK-alpha1 (Homo sapiens, UniProt Q13131); assay: KINOMEscan; format: binding; settings: read-out: % Inhibition AMBIT, AMP_K-alpha1
FLT4 = FLT4 (Homo sapiens, UniProt P35916); assay: KINOMEscan; format: binding; settings: read-out: % Inhibition AMBIT, FLT4
FLT4, sequence (P35916 25-1363): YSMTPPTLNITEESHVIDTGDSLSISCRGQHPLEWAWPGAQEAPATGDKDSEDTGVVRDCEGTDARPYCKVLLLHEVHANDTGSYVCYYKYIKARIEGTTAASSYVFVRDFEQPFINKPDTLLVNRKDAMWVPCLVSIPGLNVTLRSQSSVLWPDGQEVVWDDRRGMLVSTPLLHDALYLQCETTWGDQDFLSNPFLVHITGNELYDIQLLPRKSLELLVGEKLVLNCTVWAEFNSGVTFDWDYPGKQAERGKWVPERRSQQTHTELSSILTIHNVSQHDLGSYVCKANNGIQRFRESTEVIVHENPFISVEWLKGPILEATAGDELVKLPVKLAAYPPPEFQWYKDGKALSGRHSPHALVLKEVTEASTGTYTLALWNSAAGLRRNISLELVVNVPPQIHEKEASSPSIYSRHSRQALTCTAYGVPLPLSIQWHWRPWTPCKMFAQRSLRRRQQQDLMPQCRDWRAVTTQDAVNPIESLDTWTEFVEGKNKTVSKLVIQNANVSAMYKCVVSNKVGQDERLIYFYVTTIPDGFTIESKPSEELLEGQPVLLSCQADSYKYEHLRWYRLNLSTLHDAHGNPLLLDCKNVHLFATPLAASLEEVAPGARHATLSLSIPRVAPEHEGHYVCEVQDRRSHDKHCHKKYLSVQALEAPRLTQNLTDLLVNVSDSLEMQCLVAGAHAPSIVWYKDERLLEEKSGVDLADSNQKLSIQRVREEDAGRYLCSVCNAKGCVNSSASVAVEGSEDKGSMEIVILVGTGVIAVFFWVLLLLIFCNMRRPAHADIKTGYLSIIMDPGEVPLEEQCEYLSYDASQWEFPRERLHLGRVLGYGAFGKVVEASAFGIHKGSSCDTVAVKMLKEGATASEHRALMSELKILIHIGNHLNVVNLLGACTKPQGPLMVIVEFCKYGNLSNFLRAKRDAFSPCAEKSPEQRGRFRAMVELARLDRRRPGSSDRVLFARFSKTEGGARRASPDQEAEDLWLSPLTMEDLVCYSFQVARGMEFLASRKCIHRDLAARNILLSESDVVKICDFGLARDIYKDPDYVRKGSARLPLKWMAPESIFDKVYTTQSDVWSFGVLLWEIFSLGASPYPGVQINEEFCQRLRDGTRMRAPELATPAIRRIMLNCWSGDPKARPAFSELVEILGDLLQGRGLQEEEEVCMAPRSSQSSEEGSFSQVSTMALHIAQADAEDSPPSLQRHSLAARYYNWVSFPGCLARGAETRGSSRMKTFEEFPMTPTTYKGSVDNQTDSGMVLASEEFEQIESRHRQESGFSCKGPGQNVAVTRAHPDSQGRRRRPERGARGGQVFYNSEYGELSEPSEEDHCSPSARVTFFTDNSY

AURORA A KINASE = AURORA A KINASE (Homo sapiens, UniProt O14965); assay: KINOMEscan; format: binding; settings: read-out: % Inhibition AMBIT, AURORA A KINASE
PIM2 = PIM2 (Homo sapiens, UniProt Q9P1W9); assay: KINOMEscan; format: binding; settings: read-out: % Inhibition AMBIT, PIM2
PLK3 = PLK3 (Homo sapiens, UniProt Q9H4B4); assay: KINOMEscan; format: binding; settings: read-out: % Inhibition AMBIT, PLK3
RSK1 = settings: read-out: IC50 RSK1; kinase activity assay; ref Hasinoff et al., 2008; cited from earlier work
DMPK = DMPK (Homo sapiens, UniProt Q09013); assay: KINOMEscan; format: binding; settings: read-out: % Inhibition AMBIT, DMPK
AKT3 = AKT3 (Homo sapiens, UniProt Q9Y243); assay: KINOMEscan; format: binding; settings: read-out: % Inhibition AMBIT, AKT3
human iPSC-CMs [5] = assay: LDH release in iCell cardiomyocytes; format: cell-based
MAP3K5 (ASK1) = MAP3K5 (ASK1) (Homo sapiens, UniProt Q99683); assay: KINOMEscan; format: binding; settings: read-out: % Inhibition AMBIT, MAP3K5 (ASK1)
RPS6KA6 (Kin. Dom.1) = RPS6KA6 (Kin. Dom.1) (Homo sapiens, UniProt Q9UK32); assay: KINOMEscan; format: binding; settings: read-out: % Inhibition AMBIT, RPS6KA6 (Kin. Dom.1)
ERBB2 = ERBB2 (Homo sapiens, UniProt P04626); assay: KINOMEscan; format: binding; settings: read-out: % Inhibition AMBIT, ERBB2
PDGFR-alpha = PDGFR-alpha (Homo sapiens, UniProt P16234); assay: KINOMEscan; format: binding; settings: read-out: % Inhibition AMBIT, PDGFR-alpha
MAPK/ERK2 = MAPK/ERK2 (Homo sapiens, UniProt P28482); assay: KINOMEscan; format: binding; settings: read-out: % Inhibition AMBIT, MAPK/ERK2
MAPK/ERK2, sequence (P28482 whole entry): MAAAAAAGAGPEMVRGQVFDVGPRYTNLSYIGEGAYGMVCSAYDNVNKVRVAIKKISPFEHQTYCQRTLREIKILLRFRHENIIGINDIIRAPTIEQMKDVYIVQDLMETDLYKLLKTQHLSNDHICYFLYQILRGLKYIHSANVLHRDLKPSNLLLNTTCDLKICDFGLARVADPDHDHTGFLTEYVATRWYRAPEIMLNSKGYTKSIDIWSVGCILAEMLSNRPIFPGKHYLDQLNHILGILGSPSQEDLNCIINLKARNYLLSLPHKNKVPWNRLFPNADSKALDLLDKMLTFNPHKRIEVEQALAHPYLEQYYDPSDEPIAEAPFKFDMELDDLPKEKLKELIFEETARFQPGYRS

PLK1 = PLK1 (Homo sapiens, UniProt P53350); assay: KINOMEscan; format: binding; settings: read-out: % Inhibition AMBIT, PLK1
PLK1, sequence (P53350 whole entry): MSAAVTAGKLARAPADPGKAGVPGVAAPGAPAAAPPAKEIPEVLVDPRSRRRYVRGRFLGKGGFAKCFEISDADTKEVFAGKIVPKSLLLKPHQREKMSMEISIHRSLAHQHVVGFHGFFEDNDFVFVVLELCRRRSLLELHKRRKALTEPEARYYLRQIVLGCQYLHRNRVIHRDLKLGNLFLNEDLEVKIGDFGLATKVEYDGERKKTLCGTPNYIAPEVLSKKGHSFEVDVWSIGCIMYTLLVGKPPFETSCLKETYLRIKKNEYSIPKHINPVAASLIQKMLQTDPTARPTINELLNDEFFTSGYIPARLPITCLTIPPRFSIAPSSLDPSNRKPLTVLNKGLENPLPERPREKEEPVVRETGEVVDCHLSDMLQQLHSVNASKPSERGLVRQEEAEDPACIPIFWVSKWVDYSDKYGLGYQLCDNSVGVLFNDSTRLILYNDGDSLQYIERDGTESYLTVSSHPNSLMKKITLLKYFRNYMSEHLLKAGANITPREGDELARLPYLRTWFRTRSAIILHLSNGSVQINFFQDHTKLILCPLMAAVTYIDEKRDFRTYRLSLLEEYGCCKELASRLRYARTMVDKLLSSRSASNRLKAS

human iPSC-CMs [6] = assay: GSH oxidation; format: cell-based
RPS6KA4 (Kin. Dom.2) = RPS6KA4 (Kin. Dom.2) (Homo sapiens, UniProt O75676); assay: KINOMEscan; format: binding; settings: read-out: % Inhibition AMBIT, RPS6KA4 (Kin. Dom.2)
AURORA B KINASE = AURORA B KINASE (Homo sapiens, UniProt Q96GD4); assay: KINOMEscan; format: binding; settings: read-out: % Inhibition AMBIT, AURORA B KINASE
FLT1 = FLT1 (Homo sapiens, UniProt P17948); assay: KINOMEscan; format: binding; settings: read-out: % Inhibition AMBIT, FLT1
RSK1/2/4 = assay: 10 µM AMBIT screen; format: binding
BRAF = BRAF (Homo sapiens, UniProt P15056); assay: KINOMEscan; format: binding; settings: read-out: % Inhibition AMBIT, BRAF
BRAF, sequence (P15056 whole entry): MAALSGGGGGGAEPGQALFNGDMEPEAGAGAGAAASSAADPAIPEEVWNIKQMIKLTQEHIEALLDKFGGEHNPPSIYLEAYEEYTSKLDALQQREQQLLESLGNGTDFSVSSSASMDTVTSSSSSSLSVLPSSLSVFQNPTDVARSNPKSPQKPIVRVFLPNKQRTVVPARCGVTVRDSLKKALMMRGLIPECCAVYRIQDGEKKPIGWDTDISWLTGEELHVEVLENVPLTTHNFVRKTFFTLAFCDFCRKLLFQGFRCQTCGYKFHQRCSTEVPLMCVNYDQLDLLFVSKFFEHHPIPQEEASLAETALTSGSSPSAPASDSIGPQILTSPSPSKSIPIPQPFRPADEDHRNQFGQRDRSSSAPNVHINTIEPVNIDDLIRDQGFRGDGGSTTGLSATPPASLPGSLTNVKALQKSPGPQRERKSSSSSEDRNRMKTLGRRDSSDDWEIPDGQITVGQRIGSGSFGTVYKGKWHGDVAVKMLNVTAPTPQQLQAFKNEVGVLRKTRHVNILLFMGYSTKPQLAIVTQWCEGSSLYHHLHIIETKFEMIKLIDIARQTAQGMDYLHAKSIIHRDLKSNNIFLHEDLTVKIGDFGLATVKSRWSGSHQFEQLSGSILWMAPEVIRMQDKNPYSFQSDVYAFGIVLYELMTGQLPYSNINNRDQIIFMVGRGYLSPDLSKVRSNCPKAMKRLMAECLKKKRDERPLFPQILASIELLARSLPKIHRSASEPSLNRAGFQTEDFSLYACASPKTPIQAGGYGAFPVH

Nav1.5 channel = Nav1.5 channel (Homo sapiens, UniProt Q14524); assay: PatchXpress Nav1.5 channel assay in CHL-Nav1.5 cells; format: cell-based; settings: read-out: IC50 of Nav1.5 channel inhibition
[7] = 31 µM sunitinib, 24 h, iPSC-CMs
[8] = 23 µM sunitinib, 24 h, iPSC-CMs

Compound: CCN(CC)CCNC(=O)c1c(C)[nH]c(/C=C2\C(=O)Nc3ccc(F)cc32)c1C [sunitinib, Sunitinib]
- inhibition at 10 µM (RAF): < 50%
- inhibition at 10 µM (RPS6KA2 (Kin. Dom.1)): 100%
- inhibition at 10 µM (GSK3A): < 50%
- inhibition of phosphorylation of AMPK's downstream target ACC-Ser79 (pACC-S79, pAMPK-T172; 15 µM for 2 h): inhibited AMPK
- phosphorylation status of ACC-S79 (pACC-S79, pAMPK-T172; 15.6 µM, 2 h): decreased the phosphorylation status of ACC-S79
- inhibition at 10 µM (RPS6KA1 (Kin. Dom.1)): 100%
- number of kinases bound of the 317 kinases tested (317 kinases): 57
- share of the 317 kinases tested that were bound (317 kinases): 18%
- inhibition at 10 µM (CDK7): 100%
- inhibition at 10 µM (PIM1): < 50%
- inhibition at 10 µM (GSK3B): < 50%
- inhibition at 10 µM (ERBB4): < 50%
- inhibition at 10 µM (ROCK2): 97%
- inhibition at 10 µM (RPS6KA4 (Kin. Dom.1)): 100%
- cleavage of caspase 3/7 (human iPSC-CMs [1]; [7]): ~100%
- amplitude of the Na+-peak (human iPSC-CMs [2]; serially increasing additions): dose-dependently reduced the amplitude of the Na^+-peak
- inhibition at 10 µM (AMPK-alpha2): 99%
- inhibition at 10 µM (AURORA C KINASE): 100%
- ATP depleted compared to vehicle (human iPSC-CMs [3]; [8]): greater than 60%
- depletion of ATP (human iPSC-CMs [3]; 24 h, iPSC-CMs): ~100%
- depletion of ATP (human iPSC-CMs [3]; by 4.5 h, iPSC-CMs (unpublished results)): 80%
- TC50 based on dose–response data for ATP depletion (human iPSC-CMs [3]): 16.7 µM
- IC50 of cardiotoxicity (loss of cellular ATP, oxidized glutathione, apoptosis) (human iPSC-CMs [4]): low micromolar range
- inhibition at 10 µM (STK11): 100%
- inhibition at 10 µM (PLK4): 100%
- inhibition at 10 µM (PDGFR-beta): 100%
- inhibition at 10 µM (RPS6KA6 (Kin. Dom.2)): < 50%
- inhibition at 10 µM (AMPK-alpha1): 100%
- inhibition at 10 µM (FLT4): 100%
- inhibition at 10 µM (AURORA A KINASE): < 50%
- inhibition at 10 µM (PIM2): < 50%
- inhibition at 10 µM (PLK3): < 50%
- inhibition at 10 µM (DMPK): < 50%
- inhibition at 10 µM (AKT3): < 50%
- increase in LDH release compared to vehicle (human iPSC-CMs [5]; [8]): 300%
- release of LDH (human iPSC-CMs [5]; [7]): ~100%
- inhibition at 10 µM (MAP3K5 (ASK1)): < 50%
- inhibition at 10 µM (RPS6KA6 (Kin. Dom.1)): 97%
- inhibition at 10 µM (ERBB2): < 50%
- inhibition at 10 µM (PDGFR-alpha): 100%
- inhibition at 10 µM (MAPK/ERK2): < 50%
- inhibition at 10 µM (PLK1): < 50%
- GSH oxidized compared to vehicle (human iPSC-CMs [6]; [8]): 67%
- oxidation of GSH (human iPSC-CMs [6]; [7]): ~100%
- inhibition at 10 µM (RPS6KA4 (Kin. Dom.2)): 99%
- inhibition at 10 µM (AURORA B KINASE): 100%
- inhibition at 10 µM (FLT1): 100%
- inhibition of RSK1/2/4 (RSK1/2/4): 100%
- inhibition at 10 µM (BRAF): < 50%

Compound: COCCNCCCn1c(C(=O)CF)c(-c2ccc(C)cc2)c2c(N)ncnc21 [RSK FMK-MEA, fluoromethylketone methoxyethylamine]
- pIC50 (Nav1.5 channel): 4.25
- concentration with irregular (arrhythmic) beats (human iPSC-CMs [2]; 15 min at each concentration): 3000 nM
- amplitude of the Na+-peak (human iPSC-CMs [2]; serially increasing additions): dose-dependent reduction in the amplitude of the Na^+-peak
- fPDc (field-potential duration corrected by beat rate, Fridericia) (human iPSC-CMs [2]; serially increasing additions): dose-dependent prolongation of fPDc
- TC50 based on dose–response data for ATP depletion (human iPSC-CMs [3]): 250 µM
- concentration without cytotoxicity (no ATP depletion or LDH release) (human iPSC-CMs [4]): up to 62 µM
- concentration without cytotoxicity (no ATP depletion or LDH release) (human iPSC-CMs [4]; listed as RSK-FMK-MEA): below 250 µM

Compound: NC(=O)c1ncn([C@@H]2O[C@H](CO)[C@@H](O)[C@H]2O)c1N [AICAR, aminoimidazole carboxamide ribonucleotide]
- phosphorylation status of AMPKα-Thr172 and ACC-Ser79 (pACC-S79, pAMPK-T172): activated AMPK signaling
- maximal attenuation of caspase 3/7 cleavage (human iPSC-CMs [1]; 2 mM pretreatment 3 h): 108%
- change of beat rate from baseline (human iPSC-CMs [2]): ≤ 1%
- attenuation of sunitinib-mediated ATP depletion (human iPSC-CMs [3]): Neither AICAR (Fig. 3A) nor metformin (Fig. 3E) attenuated
- reduction of LDH release (human iPSC-CMs [5]; 1 mM pretreatment 3 h, 23 or 31 µM sunitinib 24 h): 80%
- attenuation of oxidized GSH (human iPSC-CMs [6]; 1 mM pretreatment 3 h, 31 µM sunitinib 24 h): 14%

Compound: CN(C)C(=N)N=C(N)N [metformin]
- phosphorylation status of AMPKα-Thr172 and ACC-Ser79 (pACC-S79, pAMPK-T172): activated AMPK signaling
- maximal attenuation of caspase 3/7 cleavage (human iPSC-CMs [1]; 1 mM pretreatment 3 h): 107%
- change of beat rate from baseline (human iPSC-CMs [2]): ≤ 1%
- attenuation of sunitinib-mediated ATP depletion (human iPSC-CMs [3]): Neither AICAR (Fig. 3A) nor metformin (Fig. 3E) attenuated
- maximal attenuation of LDH release (human iPSC-CMs [5]; 1 mM pretreatment 3 h, 23 µM sunitinib 24 h): 90%
- reduction in oxidation of GSH (human iPSC-CMs [6]; 2 mM pretreatment 3 h, 23 µM sunitinib 24 h): 35%
